Experimental data published in patent publication US7625909B2, “Substituted quinazolinone compounds” (Novartis Vaccines and Diagnostics, Inc., priority 2003, dated 2009).
Where two headings read alike, the source gives them in different places.

Test: Tissue half-life (t1/2) and Cmax in plasma, brain, kidney and liver after oral administration to CD-1 mice
Format: in vivo
Conditions: 30 mg/kg oral gavage; for half-life: male, mouse
Method: In vivo studies were conducted to observe the effect of the compounds of formula IA, IB, IIA, and IIIB in the subject animal. Male CD-1 mice, body weight of 20 grams at arrival, were used in these studies. Mice were given 30 mg/kg of compound in HPMC/Tween solution or suspension via oral gavage. Plasma, brain, and liver samples were collected at time periods of 1, 2, 4, 8, and 24 hours post dosing. One mouse was used per time point. Thus, a total of 5 mice were used for each compound tested. For sample collection, mice were euthanized with CO2. Blood samples were taken by cardiac puncture and kept on ice. Brain and liver samples were collected immediately after bleeding and the samples were kept on dry ice. For calculation of tissue half-lives (t1/2s), the terminal rate constant k was estimated by the absolute value of the slope of a log-linear regression of the terminal phase of the tissue concentration-time profile. The tissue half-life t1/2 is In(2)/k.
The following table includes t1/2 data for plasma, brain, kidney, and liver obtained after oral administration.

[1] = brain, read-out: Tissue Half-Lives, Brain (converted)
[2] = liver, read-out: Tissue Half-Lives, Liver (converted)
[3] = plasma, read-out: Tissue Half-Lives, Plasma (converted)

| Structure (SMILES) | half-life [1] [h] | half-life [2] [h] | half-life [3] [h] | Tissue Half-Lives, Kidney [h] | also measured |
| --- | --- | --- | --- | --- | --- |
| COc1ccc(CCn2c(NC3CC3)nc3cc(NC(=N[C@H]4C[C@H]5C[C@@H]([C@@H]4C)C5(C)C)N4CC(=O)N[C@@H](C)C4)ccc3c2=O)c(F)c1 [Example 224, (3S)-N-{2-(cyclopropylamino)-3-[2-(2-fluoro-4-methoxyphenyl)ethyl]-4-oxo-3,4-dihydroquinazolin-7-yl}-3-methyl-5-oxo-N′-[(1S, 2S, 3S, 5R)-2,6,6-trimethylbicyclo[3.1.1]hept-3-yl]piperazine-1-carboximidamide] | – | – | – | – | Tissue Half-Lives, Liver (liver): 3.1 h |
| C[C@@H]1[C@@H](N=C(Nc2ccc3c(=O)n(CCc4ccc(Cl)cc4)c(C4CCCNC4)nc3c2)N2CC(=O)N[C@@H](C)C2)C[C@H]2C[C@@H]1C2(C)C (stereo partly drawn) [Example 241, (3S)-N-{3-[2-(4-chlorophenyl)ethyl]-4-oxo-2-piperidin-3-yl-3,4-dihydroquinazolin-7-yl}-3-methyl-5-oxo-N′-[(1S, 2S, 3S, 5R)-2,6,6-trimethylbicyclo[3.1.1]hept-3-yl]piperazine-1-carboximidamide] | 51 | 17 | 21 | – | – |
| COc1ccc(CCn2c(-c3cccnc3)nc3cc(N/C(=N/C4C[C@H]5C[C@@H]([C@@H]4C)C5(C)C)N4CCN(C#N)[C@@H](C)C4)ccc3c2=O)c(F)c1 (stereo partly drawn) [Example 246, (3S)-4-cyano-N-{3-[2-(2-fluoro-4-methoxyphenyl)ethyl]-4-oxo-2-pyridin-3-yl-3,4-dihydroquinazolin-7-yl}-3-methyl-N-[(1S, 2S, 3S, 5R)-2,6,6-trimethylbicyclo[3.1.1]hept-3-yl]piperazine-1-carboximidamide] | – | – | – | – | Tissue Half-Lives, Brain (brain): 5.8 h |
| COc1ccc(CCn2c(C#N)nc3cc(NC(=NC4C[C@H]5C[C@@H]([C@@H]4C)C5(C)C)N4CCN[C@@H](CF)C4)ccc3c2=O)c(F)c1 (stereo partly drawn) [Example 256, (3R)-N-{2-cyano-3-[2-(2-fluoro-4-methoxyphenyl)ethyl]-4-oxo-3,4-dihydroquinazolin-7-yl}-3-(fluoromethyl)-N′-[(1S, 2S, 5R)-2,6,6-trimethylbicyclo[3.1.1]hept-3-yl]piperazine-1-carboximidamide] | 15 | 4.3 | 5.4 | – | – |
| C[C@@H]1[C@@H](/N=C(/Nc2ccc3c(=O)n(CCc4ccc(Cl)cc4Cl)cnc3c2)N2CCNC(=O)C2)C[C@@H]2C[C@H]1C2(C)C [Example 260, N-{3-[2-(2,4-dichlorophenyl)ethyl]-4-oxo-3,4-dihydroquinazolin-7-yl}-3-oxo-N′-[(1R, 2S, 3S, 5S)-2,6,6-trimethylbicyclo[3.1.1]hept-3-yl]piperazine-1-carboximidamide] | – | – | – | 7.3 | – |
| COc1ccc(CCn2c(-c3cccnc3)nc3cc(N/C(=N/[C@H]4C[C@@H]5C[C@H]([C@@H]4C)C5(C)C)N4C[C@@H](C)N(O)[C@@H](C)C4)ccc3c2=O)c(F)c1 [Example 296, (3R, 5S)-N-[3-{2-[2-fluoro-4-(methyloxy)phenyl]eth-yl}-4-oxo-2-(3-pyridinyl)-3,4-dihydro-7-quinazolinyl]-4-hydroxy-3,5-dimethyl-N′-[(1R, 2S, 3S, 5S)-2,6,6-trimethylbicyclo[3.1.1]hept-3-yl]-1-piperazinecarboximida-mide] | – | – | – | 3.3 | – |
